In PubChem BioAssay AID248 (DTP/NCI, 2004):
Where “and” joins values, the source holds several entries; their conditions need not be identical. Equal entries are not always repeated. Toxic doses and inconclusive results are not listed. No stated cut-off is given here; in the data, active means T/C of 150% or more; inactive means T/C below 125%.

Tested on: L1210 leukemia ip in BDF1 mice, survival T/C
Test: NCI In Vivo Anticancer Drug Screen. Data for tumor model L1210 Leukemia (intraperitoneal) in B6D2F1 (BDF1) mice
Details: endpoint: mean survival time, higher = longer survival
How it was run: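 Transplantable tumor model; survival measured in treated vs vehicle control mice. Value = treated/control.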

[1] = dose: 100.0 mg/kg/injection, schedule: Q04DX003 (ip), vehicle: gum acacia
[2] = dose: 200.0 mg/kg/injection, schedule: Q04DX003 (ip), vehicle: gum acacia
[3] = dose: 400.0 mg/kg/injection, schedule: Q04DX003 (ip), vehicle: gum acacia
[4] = dose: 50.0 mg/kg/injection, schedule: Q01DX001 (ip), vehicle: carboxymethylcellulose (CMC)
[5] = dose: 100.0 mg/kg/injection, schedule: Q01DX001 (ip), vehicle: carboxymethylcellulose (CMC)
[6] = dose: 200.0 mg/kg/injection, schedule: Q01DX001 (ip), vehicle: carboxymethylcellulose (CMC)
[7] = dose: 400.0 mg/kg/injection, schedule: Q01DX001 (ip), vehicle: carboxymethylcellulose (CMC)
[8] = dose: 100.0 mg/kg/injection, schedule: Q04DX003 (ip), vehicle: Klucel (hydroxypropylcellulose) (HPC)
[9] = dose: 200.0 mg/kg/injection, schedule: Q04DX003 (ip), vehicle: Klucel (hydroxypropylcellulose) (HPC)
[10] = dose: 400.0 mg/kg/injection, schedule: Q04DX003 (ip), vehicle: Klucel (hydroxypropylcellulose) (HPC)
[11] = dose: 100.0 mg/kg/injection, schedule: Q01DX001 (ip), vehicle: saline
[12] = dose: 100.0 mg/kg/injection, schedule: Q01DX009 (ip), vehicle: saline sonified
[13] = dose: 100.0 mg/kg/injection, schedule: Q04DX003 (ip), vehicle: saline with Tween-80
[14] = dose: 200.0 mg/kg/injection, schedule: Q01DX009 (ip), vehicle: saline sonified
[15] = dose: 200.0 mg/kg/injection, schedule: Q04DX003 (ip), vehicle: saline with Tween-80
[16] = dose: 400.0 mg/kg/injection, schedule: Q01DX009 (ip), vehicle: saline sonified
[17] = dose: 400.0 mg/kg/injection, schedule: Q04DX003 (ip), vehicle: saline with Tween-80

Measured: T/C

CC1CCCCN1C(=O)Nc1cccc(C(F)(F)F)c1 (centres undefined)
inactive: dose: 100.0 mg/kg/injection, schedule: Q01DX001 (ip), vehicle: gum acacia 100 % of control and 103 % of control | dose: 100.0 mg/kg/injection, schedule: Q01DX009 (ip), vehicle: gum acacia 107 % of control | dose: 100.0 mg/kg/injection, schedule: Q04DX002 (ip), vehicle: gum acacia 93 % of control | [1] 100 % of control and 101 % of control | dose: 200.0 mg/kg/injection, schedule: Q01DX001 (ip), vehicle: gum acacia 95 % of control and 105 % of control | dose: 200.0 mg/kg/injection, schedule: Q01DX009 (ip), vehicle: gum acacia 106 % of control | dose: 200.0 mg/kg/injection, schedule: Q04DX002 (ip), vehicle: gum acacia 96 % of control and 98 % of control | [2] 95 % of control | dose: 400.0 mg/kg/injection, schedule: Q01DX001 (ip), vehicle: gum acacia 92 % of control and 102 % of control | dose: 400.0 mg/kg/injection, schedule: Q01DX009 (ip), vehicle: gum acacia 102 % of control | dose: 400.0 mg/kg/injection, schedule: Q04DX002 (ip), vehicle: gum acacia 93 % of control and 86 % of control | [3] 98 % of control and 100 % of control

O=c1cc[nH]c2c(Cl)cccc12
inactive: [4] 109 % of control | [5] 109 % of control | [6] 114 % of control | [7] 110 % of control

Brc1cscc1C1=CCCc2ccccc21
inactive: [8] 106 % of control | [9] 98 % of control | [10] 101 % of control

CCCCCCCCCCCCCCCCCCCC(=O)CCl
inactive: dose: 100.0 mg/kg/injection, schedule: Q04DX002 (sc), vehicle: olive oil, sesame oil, peanut oil 104 % of control | dose: 200.0 mg/kg/injection, schedule: Q04DX002 (sc), vehicle: olive oil, sesame oil, peanut oil 100 % of control | dose: 400.0 mg/kg/injection, schedule: Q04DX002 (sc), vehicle: olive oil, sesame oil, peanut oil 107 % of control

CCOC(=O)C1CCN(S(=O)(=O)c2ccc(C)cc2)c2cc(Cl)ccc2C1=O (centres undefined)
inactive: dose: 100.0 mg/kg/injection, schedule: Q01DX009 (ip), vehicle: Klucel (hydroxypropylcellulose) (HPC) 93 % of control | [8] 96 % of control | dose: 200.0 mg/kg/injection, schedule: Q01DX009 (ip), vehicle: Klucel (hydroxypropylcellulose) (HPC) 93 % of control | [9] 93 % of control | dose: 400.0 mg/kg/injection, schedule: Q01DX009 (ip), vehicle: Klucel (hydroxypropylcellulose) (HPC) 101 % of control | [10] 94 % of control

O=[N+]([O-])c1cccc(C=Nc2cccc([N+](=O)[O-])c2)c1
inactive: [1] 95 % of control | [2] 93 % of control | [3] 98 % of control

N#CCc1ccc(N=Nc2c(N)nc(N)[nH]c2=O)cc1
inactive: [11] 98 % of control | dose: 200.0 mg/kg/injection, schedule: Q01DX001 (ip), vehicle: saline 96 % of control | dose: 400.0 mg/kg/injection, schedule: Q01DX001 (ip), vehicle: saline 96 % of control

O=C(c1ccccc1)c1nonc1C(=O)c1ccccc1
inactive: [12] 93 % of control | [13] 97 % of control | [14] 90 % of control | [15] 92 % of control | [16] 93 % of control | [17] 97 % of control

O=[N+]([O-])c1ccc(/C=C/c2ccccn2)s1
inactive: [8] 96 % of control | dose: 100.0 mg/kg/injection, schedule: Q04DX003 (ip), vehicle: water 101 % of control | [9] 112 % of control | dose: 200.0 mg/kg/injection, schedule: Q04DX003 (ip), vehicle: water 98 % of control | [10] 96 % of control | dose: 400.0 mg/kg/injection, schedule: Q04DX003 (ip), vehicle: water 97 % of control

O=C1CCC(=O)N1c1ccc(Br)cc1
inactive: [4] 102 % of control | [5] 102 % of control | [6] 98 % of control | [7] 98 % of control

COc1ccc(C(C(N)=O)N2CCCC2)cc1 (centres undefined)
inactive: [13] 102 % of control | [15] 96 % of control | [17] 96 % of control

COC(=O)CCC#N
inactive: dose: 100.0 mg/kg/injection, schedule: Q01DX009 (ip), vehicle: saline 101 % of control | dose: 200.0 mg/kg/injection, schedule: Q01DX009 (ip), vehicle: saline 91 % of control | dose: 400.0 mg/kg/injection, schedule: Q01DX009 (ip), vehicle: saline 102 % of control

COc1ccc(NC2=NCCS2)cc1
inactive: dose: 50.0 mg/kg/injection, schedule: Q01DX009 (ip), vehicle: saline with Tween-80 95 % of control | dose: 100.0 mg/kg/injection, schedule: Q01DX009 (ip), vehicle: saline with Tween-80 95 % of control | dose: 200.0 mg/kg/injection, schedule: Q01DX009 (ip), vehicle: saline with Tween-80 96 % of control

O=C1c2ccccc2C(=O)c2c1ccc1c2[nH]c2ccccc21
inactive: [5] 86 % of control | [6] 91 % of control | [7] 89 % of control

CCCCCCCCCCCCCCCCOC(=O)C[n+]1ccc(C(N)=O)cc1
inactive: dose: 100.0 mg/kg/injection, schedule: Q04DX003 (ip), vehicle: acetone 97 % of control | dose: 200.0 mg/kg/injection, schedule: Q04DX003 (ip), vehicle: acetone 90 % of control

CC(=O)c1ccc(N2CCN(C)CC2)cc1
inactive: dose: 50.0 mg/kg/injection, schedule: Q01DX001 (ip), vehicle: saline 100 % of control | [11] 102 % of control

Nc1ccccc1S(=O)(=O)F
inactive: dose: 75.0 mg/kg/injection, schedule: Q04DX003 (ip), vehicle: Klucel (hydroxypropylcellulose) (HPC) 100 % of control | [5] 98 % of control | dose: 150.0 mg/kg/injection, schedule: Q04DX003 (ip), vehicle: Klucel (hydroxypropylcellulose) (HPC) 94 % of control | [6] 98 % of control | dose: 300.0 mg/kg/injection, schedule: Q04DX003 (ip), vehicle: Klucel (hydroxypropylcellulose) (HPC) 96 % of control | [7] 101 % of control

CCCC(CCC)(C(N)=O)c1ccc(OC)cc1
inactive: [5] 87 % of control | [6] 98 % of control | [7] 93 % of control

CCCCCCC(CCCCCC)(CCCCCC)B1OCCO1
inactive: [12] 96 % of control | dose: 100.0 mg/kg/injection, schedule: Q04DX003 (ip), vehicle: saline 102 % of control | [14] 106 % of control | dose: 200.0 mg/kg/injection, schedule: Q04DX003 (ip), vehicle: saline 102 % of control | [16] 95 % of control | dose: 400.0 mg/kg/injection, schedule: Q04DX003 (ip), vehicle: saline 96 % of control

c1ccc(-c2cncc(CNCc3cncc(-c4ccccc4)c3)c2)cc1
inactive: dose: 100.0 mg/kg/injection, schedule: Q01DX001 (ip), vehicle: Klucel (hydroxypropylcellulose) (HPC) 102 % of control | dose: 200.0 mg/kg/injection, schedule: Q01DX001 (ip), vehicle: Klucel (hydroxypropylcellulose) (HPC) 95 % of control | dose: 400.0 mg/kg/injection, schedule: Q01DX001 (ip), vehicle: Klucel (hydroxypropylcellulose) (HPC) 110 % of control
